For one data set, the system named is cMYC-EGFP-DCD19. Nature of the data set: Flow cytometry of EGFP signal, cMYC-EGFP-DCD19 in HMEC. Type of data set: cell-based, human. As to conditions: 10uM, 4h. An excerpt:
To systematically delineate the optimal DCD/degrader combination for targeted protein degradation, we undertook a matrix approach evaluating all 23 DCD tags against 6 small molecule degraders. […] To control for any potential off-target effects of the IMiD/CeLMOD agents that could indirectly affect the target of interest, we designed controls in which the specific DCD and the EGFP sequences were interspaced by a P2A ribosomal “skipping” sequence,[32] leading to separate translation of the DCD and the target protein (Figure 1A). These constructs were then inserted into a doxycycline-inducible lentiviral vector system and stably expressed in hTERT immortalized human mammary epithelial cells (HMEC), a suitable model to assess the functional consequences of cMYC degradation. cMYC was tagged at the C-terminus end for the initial screening experiments.
Figure 1 Design and experimental evaluation of the DCD tags (A) Representation of the experimental pipeline used to evaluate the different DCD constructs. […] Median EGFP intensity was measured in each condition using flow cytometry (3 independent experiments, normalized to the control and represented as mean ± SD). […] The protein lysates were probed for cMYC levels using western blotting. […] Target loss was evaluated either by measuring EGFP median intensity using flow cytometry or western blotting for cMYC protein (3 independent experiments, normalized to the control and represented as mean ± SD). […] Target loss was evaluated as in (D) (3 independent experiments, normalized to the control and represented as mean ± SD). […] Protein lysates were collected and probed for cMYC and p21 using western blotting. […] Protein lysates were collected and probed for cMYC and p21 using western blotting. […] These were left out as controls with no test substance.
Following degrader treatment cells were collected and DAPI was added to the cell suspension at 1 μg/mL to allow the exclusion of dead cells. EGFP signal was measured using BD LSR II flow cytometer (BD Biosciences). FlowJo 10 Software (FlowJo) was used for data processing.
For orientation: A flow cytometer gives signals particle by particle.

The test system of data set [1] is HMEC, HEK293T, MDA-MB-231, Kelly cells. Nature of the data set: Cell viability assay (CellTiter-Blue). The following applies: 5 days treatment. Type of data set: cell-based, human. Here is the method:
By endpoint, CellTiter-Blue reagent (Promega) was added to each well, incubated for 3 h at 37°C and absorbance was measured with a plate reader at 570nm. Average background absorbance value was subtracted from all readings when plotting the viability curve.

The subject of a further data set is Flag-HA-DCD23-EGFP. Nature of the data set: Degradation of Flag-HA-DCD23-EGFP in murine cells. Type of data set: cell-based, mouse. As to conditions: for DC50 / DCmax: 24h, flow cytometry. Here is the method: Given the high degradation efficiency of DCD23 in human cells, we sought to test the applicability of this system in murine cells.
(§1) The protein lysates were probed for EGFP using western blotting. […] EGFP signal was then measured using flow cytometry. (3 independent experiments, normalized to the control and represented as mean ± SD). […] Data are plotted as Log2 fold change relative to DMSO versus Log10 of p value.
As an additional validation of iTAG (DCD23) induced degradation, we tested the same constructs in murine colorectal carcinoma cells (CT26) where we saw similar loss of EGFP with a panel of IMiD/CeLMODs (Figure S9B).

The subject of data set [2] is Flag-HA-DCD23-RBM39, Flag-HA-DCD23-SMS. Nature of the data set: Quantitative TMT proteomics of CT26 expressing iTAG-tagged RBM39 or SMS. Type of data set: cell-based, mouse. The following applies: CT26, 10uM, 8h. Here is the method:
as §1
We then tested the degradation of RBM39 (nuclear) and SMS (cytoplasmic) N-terminally tagged with iTAG (DCD23) in CT26 and AT3 ([…]) (Figures 5C–5E).
Samples for quantitative proteomics were prepared using the SimPLIT workflow.[60] […] Samples were bath sonicated for 5 min, incubated at RT for 45 min and protein concentration was measured with the Bradford Protein Assay (Biorad) according to manufacturer instructions. […]
LC-MS analysis was performed on the Dionex Ultimate 3000 UHPLC system coupled with the Orbitrap Lumos mass spectrometer (Thermo Scientific). Samples were analyzed with the EASY-Spray C18 capillary column (75 μm × 50 cm, 2 μm) at 50°C. […] MS3 quantification was obtained with higher-energy collisional dissociation (HCD) fragmentation of the top 5 most abundant CID fragments isolated with synchronous precursor selection (SPS). […]
The SEQUEST-HT search engine was used to analyze the acquired mass spectra in Proteome Discoverer 2.4 (Thermo Scientific) for protein identification and quantification. […]

By DC50 is commonly meant the concentration giving 50% degradation. Regarding `O=C1CC[C@H](N2Cc3c(OCc4ccc(CN5CCOCC5)cc4)cccc3C2=O)C(=O)N1` [CC220, Iberdomide], in the data set with cMYC-EGFP-DCD19, the “loss of cMYC-EGFP signal” value was “robust loss of cMYC-EGFP signal”. Moreover, in data set [1], the cellular toxicity result is on record as “did not induce cellular toxicity”. Moreover, the “time of onset of loss of EGFP signal” value in the data set on Flag-HA-DCD23-EGFP (2208L and PyMT) is reported as ≤ 1 h. Besides, in the data set on Flag-HA-DCD23-EGFP (2208L and PyMT, 24 h, western blotting), the “degradation of DCD23 tagged EGFP” value is reported as “efficiently degraded”. In the data set on Flag-HA-DCD23-EGFP (2208L), this compound showed a DC50 of 2.7 nM and a DCmax of 88%. In the data set with Flag-HA-DCD23-EGFP (PyMT), the DC50 is 4.3 nM and the DCmax turned out to be 81%. In data set [2], the “degradation of iTAG (DCD23) tagged RBM39 and SMS” value was “robust degradation”; the off-targets in proteome result is on record as “without any detected off-targets”.
